We go through four compounds from patent US20120251465A1, “FLAVOR COMPOSITION CONTAINING FLAVONE GLYCOSIDES” (priority 2011, published 2012).

Molecules are shown by their SMILES.

The test is described as follows: Warming compositions evaluated by a trained sensory panel (intensity scale 0 to 5). The following applies: flavone glycoside 1 ppm combined with capsicum oleoresin 2 ppm; for Enhancement of the warming effect of capsicum oleoresin: versus capsicum oleoresin 2 ppm alone; for Flavor Intensity: scale 0 to 5 (0=none, 1=minimal, 3=moderate, 5=intense).

For `O=c1cc(-c2ccc(O)cc2)oc2cc(OC3OC(CO)C(O)C(O)C3O)cc(O)c12` (centres unmarked) [Formula II, apigenin 7-O-glucoside], the “Enhancement of the warming effect of capsicum oleoresin” value (from here on “Enhancement”) is “enhanced” and the “Flavor Intensity” value worked out at 2.5.
With `COc1ccc(-c2cc(=O)c3c(O)cc(OC4OC(CO)C(O)C(O)C4O)cc3o2)cc1` (centres unmarked) [Formula III, acacetin 7-O-glucoside], the “Enhancement” value is “enhanced” and the “Flavor Intensity” value amounted to 2.5.
Consider `CC1OC(OCC2OC(Oc3cc(O)c4c(=O)cc(-c5ccc(O)c(O)c5)oc4c3)C(O)C(O)C2O)C(O)C(O)C1O` (centres unmarked) [Formula IV, luteolin 7-O-rutinoside], for which the “Enhancement” value is recorded as “enhanced” and the “Flavor Intensity” value amounted to 2.5.
On to `COc1ccc(-c2cc(=O)c3c(O)cc(OC4OC(COC5OC(C)C(O)C(O)C5O)C(O)C(O)C4O)cc3o2)cc1` (centres unmarked) [Formula V, acacetin 7-O-rutinoside], for which the “Enhancement” value is listed as “enhanced” and the “Flavor Intensity” value stood at 3.5.
